These results are taken from patent US11873290B2, “Pyridazinone compounds and uses thereof” (Edgewise Therapeutics, Inc., priority 2018, dated 2024).

The first experiment deals with skeletal myofibrils (myosin ATPase activity). The experiment is described as follows: Skeletal Myofibril ATPase Assay. The note with it: PK-LDH coupled, absorbance at 340 nm. The format is biochemical. In a few lines:
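Skeletal myofibril ATPase measured by PK-LDH-coupled NADH depletion at 340 nm, read every 1.5–2 min for 1 h; pCa buffer with PIPES/CaCl2/EGTA, pH 7.0. Rate taken as max–min absorbance, normalised to 1% DMSO vehicle (100%) and no change (0%); IC50 from four-parameter fit, bottom ≥0.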
One may read the IC50 as the concentration that inhibits the measured activity by half. Take `[2H]C(C)(C)COc1ncc(-c2ccc(=O)n(Cc3cncc(F)c3)n2)cn1` [Compound 131, 2-((5-fluoropyridin-3-yl)methyl)-6-(2-(2-methylpropoxy-2-d)pyrimidin-5-yl)pyridazin-3(2H)-one]: the IC50 is less than 10 µM. `O=c1ccc(-c2cnc(OCC(F)(F)F)nc2)nn1Cc1cncc(Cl)c1` [Compound 1, 2-((5-chloropyridin-3-yl)methyl)-6-(2-(2,2,2-trifluoroethoxy)pyrimidin-5-yl)pyridazine-3(2H)-one] gave a half-inhibitory concentration (IC50) of less than 10 µM. The same measure, in the same setting: the value for `O=c1ccc(-c2ccc(OC(F)F)cc2)nn1Cc1nc(-c2ccccc2)no1` [Compound 202, 6-(4-(difluoromethoxy)phenyl)-2-((3-phenyl-1,2,4-oxadiazol-5-yl)methyl)pyridazine-3(2H)-one] was less than 10 µM; that for `CCc1ncc(Cn2nc(-c3cnc(OCC(C)(F)F)nc3)ccc2=O)s1` [Compound 129, 6-(2-(2,2-difluoropropoxy)pyrimidin-5-yl)-2((2-ethylthiazol-5-yl)methyl)pyridazine-3(2H)-one] was less than 10 µM; that for `O=c1ccc(-c2ccc(OC(F)F)nc2)nn1Cc1[nH]ncc1-c1ccccc1` [Compound 25, 6-(6-(difluoromethoxy)pyridin-3-yl)-2-((4-phenyl-1H-pyrazol-5-yl)methyl) pyridazin-3(2H)-one] was more than 100 µM. Turning to `O=c1ccc(-c2ccc(OC(F)F)cc2)nn1Cc1nnc(C(F)(F)F)o1` [Compound 215, 6-(4-(difluoromethoxy)phenyl)-2-((5-(trifluoromethyl)-1,3,4-oxadiazol-2-yl)methyl)pyridazin-3(2H)-one], the IC50 was in the range of 10 to 100 µM. In the case of `O=c1ccc(-c2cnc(OCC(F)(F)F)nc2)nn1Cc1cc(F)c[n+]([O-])c1` [Compound 82, 3-fluoro-5-((6-oxo-3-(2-(2,2,2-trifluoroethoxy)pyrimidin-5-yl)pyridazin-1(6H)-yl)methyl) pyridine 1-oxide], the IC50 was 10 to 100 µM. On the same count and under the same terms, to `CSCCOc1ncc(-c2ccc(=O)n(Cc3cncc(F)c3)n2)cn1` [Compound 102] belongs less than 10 µM; to `O=c1ccc(-c2cnc(OCC(F)(F)F)nc2)nn1Cc1cc(C2CC2)no1` [Compound 31, 2-((3-cyclopropylisoxazol-5-yl)methyl)-6-(2-(2,2,2-trifluoroethoxy)pyrimidin-5-yl)pyridazin-3(2H)-one], less than 10 µM. On the same count and under the same terms, the value for `O=c1ccc(-c2ccc(OC(F)F)nc2)nn1Cc1cncc(Cl)c1` [Compound 2] was less than 10 µM; that for `O=c1ccc(-c2cnc(N3CCC[C@@H]3C(F)(F)F)nc2)nn1Cc1cncc(F)c1` [Compound 73, (R)-2-((5-fluoropyridin-3-yl)methyl)-6-(2-(2-(trifluoromethyl)pyrrolidin-1-yl)pyrimidin-5-yl)pyridazin-3(2H)-one] was less than 10 µM. Same read-out and setting: the value for `O=c1ccc(-c2ccc(OC(F)F)cc2)nn1Cc1nnc(C(F)(F)F)[nH]1` [Compound 236, 6-(4-(difluoromethoxy)phenyl)-2-((5-(trifluoromethyl)-4H-1,2,4-triazol-3-yl)methyl)pyridazin-3(2H)-one] was more than 100 µM; that for `CSc1cncc(Cn2nc(-c3cnc(OCC(F)(F)F)nc3)ccc2=O)c1` [Compound 111] was less than 10 µM; that for `CCc1ncc(Cn2nc(-c3cnc(OCC(C)C)nc3)ccc2=O)s1` [Compound 124, 2-((2-ethylthiazol-5-yl)methyl)-6-(2-isobutoxypyrimidin-5-yl)pyridazine-3(2H)-one] was less than 10 µM.

`Cc1ccc(-c2ccc(=O)n(Cc3cc(=O)n4ccccc4n3)n2)cc1` [Compound 311, 2-((6-oxo-3-(p-tolyl)pyridazin-1(6H)-yl)methyl)-4H-pyrido[1,2-a]pyrimidin-4-one] displayed a 50% inhibitory concentration (IC50) of 10 to 100 µM. `O=c1ccc(-c2cnc(OCC(F)(F)F)nc2)nn1Cc1ccc[n+]([O-])c1` [Compound 80, 3-((6-oxo-3-(2-(2,2,2-trifluoroethoxy)pyrimidin-5-yl)pyridazin-1(6H)-yl)methyl)pyridine 1-oxide] showed an IC50 of more than 100 µM. As for `C/C=C\c1ncc(-c2ccc(=O)n(Cc3cncc(F)c3)n2)cn1` [Compound 352, (Z)-2-((5-fluoropyridin-3-yl)methyl)-6-(2-(prop-1-en-1-yl)pyrimidin-5-yl)pyridazin-3(2H)-one], the half-inhibitory concentration (IC50) is less than 10 µM. Still for that read-out and setting: the value for `O=c1ccc(-c2cnc(OCC(F)(F)F)nc2)nn1Cc1nnc(-c2ccccc2)s1` [Compound 94, 2-((5-phenyl-1,3,4-thiadiazol-2-yl)methyl)-6-(2-(2,2,2-trifluoroethoxy)pyrimidin-5-yl)pyridazin-3(2H)-one] was less than 10 µM. On the same count and under the same terms, to `O=c1ccc(-c2ccc(OC(F)F)cc2)nn1Cc1nnc(C(F)(F)F)s1` [Compound 229, 6-(4-(difluoromethoxy)phenyl)-2-((5-(trifluoromethyl)-1,3,4-thiadiazol-2-yl)methyl)pyridazin-3(2H)-one] belongs more than 100 µM; to `Cc1nc(Cn2nc(-c3ccc(Cl)cc3)ccc2=O)no1` [Compound 350, 6-(4-chlorophenyl)-2-((5-methyl-1,2,4-oxadiazol-3-yl)methyl)pyridazin-3(2H)-one], more than 100 µM; to `CCOc1ccc(-c2ccc(=O)n(Cc3nc(-c4cccs4)no3)n2)cc1` [Compound 308, 6-(4-ethoxyphenyl)-2-((3-(thiophen-2-yl)-1,2,4-oxadiazol-5-yl)methyl)pyridazin-3(2H)-one], less than 10 µM.

The compound `O=c1ccc(-c2cnc(OCC(F)(F)F)nc2)nn1Cc1nnc(-c2ccccn2)s1` [Compound 38, 2-((5-(pyridin-2-yl)-1,3,4-thiadiazol-2-yl)methyl)-6-(2-(2,2,2-trifluoroethoxy)pyrimidin-5-yl)pyridazin-3(2H)-one] gave an IC50 of less than 10 µM.

The compound `O=c1ccc(-c2ccc(OC(F)F)cc2)nn1Cc1nnc(C2CC2)o1` [Compound 219] returned an IC50 of 10 to 100 µM. Still for that read-out and setting: to `Cc1ncc(Cn2nc(-c3cnc(OCC(F)(F)F)nc3)ccc2=O)s1` [Compound 61, 2-((2-methylthiazol-5-yl)methyl)-6-(2-(2,2,2-trifluoroethoxy)pyrimidin-5-yl)pyridazin-3(2H)-one] belongs less than 10 µM.

As for `CSCOc1ncc(-c2ccc(=O)n(Cc3cncc(F)c3)n2)cn1` [Compound 108, 2-((5-fluoropyridin-3-yl)methyl)-6-(2-((methylthio)methoxy)pyrimidin-5-yl)pyridazine-3(2H)-one], the IC50 was less than 10 µM.

As to `O=c1ccc(-c2cnc(OCC(F)(F)F)nc2)nn1Cc1nc2cc(F)ccc2o1` [Compound 55, 2-((5-fluorobenzo[d]oxazol-2-yl)methyl)-6-(2-(2,2,2,- trifluoroethoxy)pyrimidin-5-yl)pyridazin-3(2H)-one], the IC50 was less than 10 µM. Same read-out and setting: the value for `O=c1ccc(-c2cnc(OCCC(F)(F)F)nc2)nn1Cc1cncc(F)c1` [Compound 117, 2-((5-f1uoropyridin-3-yl)methyl)-6-(2-(3,3,3-trifluoropropoxy)pyrimidin-5-yl)pyridazine-3(2H)-one] was less than 10 µM. As for `O=c1ccc(-c2ccc(NC34CC(C3)C4)nc2)nn1Cc1cncc(F)c1` [Compound 72, 6-(6-(bicyclo[1.1.1]pentan-1-ylamino)pyridin-3-yl)-2-((5-fluoropyridin-3-yl)methyl)pyridazin-3(2H)-one], the IC50 is less than 10 µM.

The subject of the next experiment is zebrafish model of DMD.
Experiment: not given
The note with it: embryos from zebrafish model of DMD; cited from earlier work.
Turning to `Cc1ccc(S(=O)(=O)NCc2ccccc2)cc1` [BTS, N-benzyl-p-tolyl-sulfonamide], the “Protection from pathological muscle derangement” value is reported as “protect muscles from pathological muscle derangement”.
